Holding throughout (format): cell-based
For experiment [1], the system named is H358 cells. The experiment can be described thus: Cell viability assay (CELLTITER-GLO), H358 cells. Conditions: Table 4; 3 days. In short, it runs like this:
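H358 cells (RPMI 1640, 10% FBS), 4,000 per well, exposed to compound for 3 days at 37 °C, 5% CO2; viability by CellTiter-Glo luminescence. Single-dose viability as % DMSO at 10 or 1 μM, binned A (<10%) to D (≥50%); IC50 binned A (≤1 μM) to D (>10 μM).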

In experiment [2] the test system is H23 cells. The experiment can be described thus: Cell viability assay (CELLTITER-GLO), H23 cells. Conditions: Table 4; 3 days. In outline: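 H23 cells in RPMI 1640 with 10% FBS, 4,000 cells/well, exposed to compound or DMSO for 3 days at 37° C, 5% CO2. Viability read by CellTiter-Glo luminescence after 10 min. IC50 reported in potency bins.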
In general terms: ATP-based viability assays read luminescence as a measure of living cells.

The subject of experiment [3] is MOLM-13 cells. In words: Cell viability assay (CELLTITER-GLO), MOLM-13 cells. Conditions: Homo sapiens, MOLM-13, 72 h; Table 2; compound at 10 μM, 3 days; read-out: Effect on MOLM-13 cell viability (% DMSO). In outline:
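MV-4-11 and MOLM-13 cells in RPMI 1640/10% FBS were seeded at 4,000 cells/well and exposed to compound (10 μM or 1 μM) or DMSO for 3 days at 37 °C, 5% CO2. CellTiter-Glo luminescence gave viability as % DMSO, binned into ranges A (<10%) through D (≥50%).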

A word on the viability: it is a read-out of living cells in per cent, often relative to untreated cells. For the compound `CCC(=O)N1CCN(c2ncnc3c(F)c(-c4c(F)cccc4OCCCNCc4ccc(COc5cccc6c5CN([C@H]5CCC(=O)NC5=O)C6=O)cc4)c(Cl)cc23)CC1` [Compound 63, (3S)-3-(4-((4-(((3-(2-(6-Chloro-8-fluoro-4-(4-propionylpiperazin-1-yl)quinazolin-7-yl)-3-fluorophenoxy)propyl)amino)methyl)benzyl)oxy)-1-oxoisoindolin-2-yl)piperidine-2,6-dione], the “Inhibition of H358 cells, IC50 (class)” value in experiment [1] is “C′”. For the same compound, the “Inhibition of H23 cells, IC50 (class)” value in experiment [2] is listed as “C′”. Also, in experiment [3], the viability at 10 µM lay in the range of 10 to 25%.
Turning to `C=CC(=O)N1C[C@@H]2C(=O)N(C)c3cnc4c(F)c(-c5c(F)cccc5OCCCCCCCN5CCC(c6cc(F)cc7c6CN(C6CCC(=O)NC6=O)C7=O)CC5)c(Cl)cc4c3N2C[C@H]1C` (stereo partly drawn) [Compound 64, 3-(4-(1-(7-(2-((2R,4aR)-3-Acryloyl-11-chloro-9-fluoro-2,6-dimethyl-5-oxo-2,3,4,4a,5,6-hexahydro-1H-pyrazino[1′,2′:4,5]pyrazino[2,3-c]quinolin-10-yl)-3-fluorophenoxy)heptyl)piperidin-4-yl)-6-fluoro-1-oxoisoindolin-2-yl)piperidine-2,6-dione], the “Inhibition of H358 cells, IC50 (class)” value in experiment [1] was “B′”. For the same compound, the “Inhibition of H23 cells, IC50 (class)” value in experiment [2] is “A′”. Moreover, in experiment [3], the viability at 10 µM is less than 10%.
On to `CCC(=O)N1C[C@@H]2C(=O)N(C)c3cnc4c(F)c(-c5c(F)cccc5OCCCCCCCN5CCC(c6cc(F)cc7c6CN(C6CCC(=O)NC6=O)C7=O)CC5)c(Cl)cc4c3N2C[C@H]1C` (stereo partly drawn) [Compound 65, 3-(4-(1-(7-(2-((2R,4aR)-11-Chloro-9-fluoro-2,6-dimethyl-5-oxo-3-propionyl-2,3,4,4a,5,6-hexahydro-1H-pyrazino[11′,2′:4,5]pyrazino[2,3-c]quinolin-10-yl)-3-fluorophenoxy)heptyl)piperidin-4-yl)-6-fluoro-1-oxoisoindolin-2-yl)piperidine-2,6-dione], for which the “Inhibition of H358 cells, IC50 (class)” value in experiment [1] is on record as “B′”. Moreover, in experiment [2], the “Inhibition of H23 cells, IC50 (class)” value is reported as “B′”. Further, the viability at 10 µM in experiment [3] was less than 10%.
Take `C=CC(=O)N1C[C@@H]2C(=O)N(CCCCCCCN3CCC(c4cc(F)cc5c4CN(C4CCC(=O)NC4=O)C5=O)CC3)c3cnc4c(F)c(-c5c(O)cccc5F)c(Cl)cc4c3N2C[C@H]1C` (stereo partly drawn) [Compound 66, 3-(4-(1-(7-((2R,4aR)-3-Acryloyl-11-chloro-9-fluoro-10-(2-fluoro-6-hydroxyphenyl)-2-methyl-5-oxo-1,2,3,4,4a,5-hexahydro-6H-pyrazino[1′,2′:4,5]pyrazino[2,3-c]quinolin-6-yl)heptyl)piperidin-4-yl)-6-fluoro-1-oxoisoindolin-2-yl)piperidine-2,6-dione]: the “Inhibition of H358 cells, IC50 (class)” value in experiment [1] is “A′”. In addition, the “Inhibition of H23 cells, IC50 (class)” value in experiment [2] is on record as “B′”. The viability at 10 µM in experiment [3] is less than 10%.
For the compound `CCC(=O)N1C[C@@H]2C(=O)N(CCCCCCCN3CCC(c4cc(F)cc5c4CN(C4CCC(=O)NC4=O)C5=O)CC3)c3cnc4c(F)c(-c5c(O)cccc5F)c(Cl)cc4c3N2C[C@H]1C` (stereo partly drawn) [Compound 67, 3-(4-(1-(7-((2R,4aR)-11-Chloro-9-fluoro-10-(2-fluoro-6-hydroxyphenyl)-2-methyl-5-oxo-3-propionyl-1,2,3,4,4a,5-hexahydro-6H-pyrazino[11′,2′:4,5]pyrazino[2,3-c]quinolin-6-yl)heptyl)piperidin-4-yl)-6-fluoro-1-oxoisoindolin-2-yl)piperidine-2,6-dione], the “Inhibition of H358 cells, IC50 (class)” value in experiment [1] is reported as “B′”. The “Inhibition of H23 cells, IC50 (class)” value in experiment [2] is “B′”. Moreover, the viability at 10 µM in experiment [3] is less than 10%.
As for `C=CC(=O)N1CCN(c2ncnc3c(F)c(-c4c(F)cccc4OCCCCCCCN4CCC(c5scc6c5CN(C5CCC(=O)NC5=O)C6=O)CC4)c(Cl)cc23)CC1` (stereo not drawn) [Compound 70, 3-(1-(1-(7-(2-(4-(4-Acryloylpiperazin-1-yl)-6-chloro-8-fluoroquinazolin-7-yl)-3-fluorophenoxy)heptyl)piperidin-4-yl)-4-oxo-4H-thieno[3,4-c]pyrrol-5(6H)-yl)piperidine-2,6-dione], the “Inhibition of H358 cells, IC50 (class)” value in experiment [1] is “A′”. Further, in experiment [2], the “Inhibition of H23 cells, IC50 (class)” value was “B′”. For the same compound, in experiment [3], the viability at 10 µM is less than 10%.
Turning to `CCC(=O)N1CCN(c2ncnc3c(F)c(-c4c(F)cccc4OCCCCCCCN4CCC(c5scc6c5CN(C5CCC(=O)NC5=O)C6=O)CC4)c(Cl)cc23)CC1` (stereo not drawn) [Compound 71, 3-(1-(1-(7-(2-(6-chloro-8-fluoro-4-(4-propionylpiperazin-1-yl)quinazolin-7-yl)-3-fluorophenoxy)heptyl)piperidin-4-yl)-4-oxo-4H-thieno[3,4-c]pyrrol-5(6H)-yl)piperidine-2,6-dione], the “Inhibition of H358 cells, IC50 (class)” value in experiment [1] was “B′”. Moreover, in experiment [2], the “Inhibition of H23 cells, IC50 (class)” value was “B′”. Besides, the viability at 10 µM in experiment [3] was less than 10%.
For the compound `C=CC(=O)N1CCN(c2nc(=O)n(-c3ccccc3C(C)C)c3nc(-c4c(F)cccc4OCCCCCCCN4CCC(c5cc(F)cc6c5CN(C5CCC(=O)NC5=O)C6=O)CC4)c(F)cc23)[C@@H](C)C1` (stereo partly drawn) [Compound 72, 3-(4-(1-(7-(2-(4-((S)-4-Acryloyl-2-methylpiperazin-1-yl)-6-fluoro-1-(2-isopropylphenyl)-2-oxo-1,2-dihydropyrido[2,3-d]pyrimidin-7-yl)-3-fluorophenoxy)heptyl)piperidin-4-yl)-6-fluoro-1-oxoisoindolin-2-yl)piperidine-2,6-dione], in experiment [1], the “Inhibition of H358 cells, IC50 (class)” value is recorded as “A′”. Also, in experiment [2], the “Inhibition of H23 cells, IC50 (class)” value is listed as “B′”. In experiment [3], the viability at 10 µM is less than 10%.
Regarding `CCC(=O)N1CCN(c2nc(=O)n(-c3ccccc3C(C)C)c3nc(-c4c(F)cccc4OCCCCCCCN4CCC(c5cc(F)cc6c5CN(C5CCC(=O)NC5=O)C6=O)CC4)c(F)cc23)[C@@H](C)C1` (stereo partly drawn) [Compound 73, 3-(6-Fluoro-4-(1-(7-(3-fluoro-2-(6-fluoro-1-(2-isopropylphenyl)-4-((S)-2-methyl-4-propionylpiperazin-1-yl)-2-oxo-1,2-dihydropyrido[2,3-d]pyrimidin-7-yl)phenoxy)heptyl)piperidin-4-yl)-1-oxoisoindolin-2-yl)piperidine-2,6-dione], the “Inhibition of H358 cells, IC50 (class)” value in experiment [1] was “B′”. Besides, the “Inhibition of H23 cells, IC50 (class)” value in experiment [2] is recorded as “B′”. Besides, the viability at 10 µM in experiment [3] is 10 to 25%.
In the case of `C=CC(=O)N1CCN(c2nc(OCCCCCCCN3CCC(c4cc(F)cc5c4CN(C4CCC(=O)NC4=O)C5=O)CC3)nc3c2CCN(c2cc(O)cc4ccccc24)C3)CC1` (stereo not drawn) [Compound 75, 3-(4-(1-(7-((4-(4-Acryloylpiperazin-1-yl)-7-(3-hydroxynaphthalen-1-yl)-5,6,7,8-tetrahydropyrido[3,4-d]pyrimidin-2-yl)oxy)heptyl)piperidin-4-yl)-6-fluoro-1-oxoisoindolin-2-yl)piperidine-2,6-dione], the “Inhibition of H358 cells, IC50 (class)” value in experiment [1] is on record as “C′”. In experiment [2], the “Inhibition of H23 cells, IC50 (class)” value is “B′”. Besides, the viability at 10 µM in experiment [3] was in the range of 25 to 50%.
The like results for `C=CC(=O)N1CCN(c2ncnc3c(F)c(-c4c(F)cccc4OCCCCCCCCCCC(=O)N[C@H](C(=O)N4C[C@H](O)C[C@H]4C(=O)NCc4ccc(-c5scnc5C)cc4)C(C)(C)C)c(Cl)cc23)CC1` [Compound 76, (2S,4R)-1-((2S)-2-(11-(2-(4-(4-Acryloylpiperazin-1-yl)-6-chloro-8-fluoroquinazolin-7-yl)-3-fluorophenoxy)undecanamido)-3,3-dimethylbutanoyl)-4-hydroxy-N-(4-(4-methylthiazol-5-yl)benzyl)pyrrolidine-2-carboxamide] were, in that order, “B′”, “B′” and less than 10%.
For `CCC(=O)N1CCN(c2ncnc3c(F)c(-c4c(F)cccc4OCCCCCCCCCCC(=O)N[C@H](C(=O)N4C[C@H](O)C[C@H]4C(=O)NCc4ccc(-c5scnc5C)cc4)C(C)(C)C)c(Cl)cc23)CC1` [Compound 77, (2S,4R)-1-((2S)-2-(11-(2-(6-Chloro-8-fluoro-4-(4-propionylpiperazin-1-yl)quinazolin-7-yl)-3-fluorophenoxy)undecanamido)-3,3-dimethylbutanoyl)-4-hydroxy-N-(4-(4-methylthiazol-5-yl)benzyl)pyrrolidine-2-carboxamide], the “Inhibition of H358 cells, IC50 (class)” value in experiment [1] was “C′”. In addition, in experiment [2], the “Inhibition of H23 cells, IC50 (class)” value is “D′”. Also, the viability at 10 µM in experiment [3] was no less than 50%.
On to `CCC(=O)N1CCN(c2ncnc3c(F)c(-c4c(F)cccc4OCCCCCCC(=O)N[C@H](C(=O)N4C[C@H](O)C[C@H]4C(=O)NCc4ccc(-c5scnc5C)cc4)C(C)(C)C)c(Cl)cc23)CC1` [Compound 78, (2S,4R)-1-((2S)-2-(7-(2-(6-Chloro-8-fluoro-4-(4-propionylpiperazin-1-yl)quinazolin-7-yl)-3-fluorophenoxy)heptanamido)-3,3-dimethylbutanoyl)-4-hydroxy-N-(4-(4-methylthiazol-5-yl)benzyl)pyrrolidine-2-carboxamide], for which the “Inhibition of H358 cells, IC50 (class)” value in experiment [1] is on record as “B′”. Also, in experiment [2], the “Inhibition of H23 cells, IC50 (class)” value was “C′”. The viability at 10 µM in experiment [3] was less than 10%.
The like results for `O=C1CCC(N2Cc3c(cc(F)cc3C3CCN(CCCCCCCOc4cccc(F)c4-c4c(Cl)cc5c(N6CCN(C(=O)C7CCNC7)CC6)ncnc5c4F)CC3)C2=O)C(=O)N1` (stereo not drawn) [Compound 79, 3-(4-(1-(7-(2-(6-Chloro-8-fluoro-4-(4-(pyrrolidine-3-carbonyl)piperazin-1-yl)quinazolin-7-yl)-3-fluorophenoxy)heptyl)piperidin-4-yl)-6-fluoro-1-oxoisoindolin-2-yl)piperidine-2,6-dione] were, in that order, “B′”, “B′” and less than 10%.
